We go through 1 molecule from US8846653B2, “Delta-tocotrienol treatment and prevention of pancreatic cancer” (University of South Florida, priority 2006, dated 2014).

The subject of data set [1] is HPDE 6C7 cells. Kind of data set: Proliferation by MTT, increasing concentrations of δ-tocotrienol. The conditions noted are these: HPDE 6C7, 24 hours, even at the highest concentrations. The class given is cell-based, human. The procedure:
MIA PaCa2, SW1990, BXPC3, and HPDE 6C7 cells (3×10^3) were cultured as described in the Examples above, in 96-well plates and treated the following day with increasing concentrations of δ-tocotrienol.

A further data set relates to BXPC3 cells. Kind of data set: Cell cycle phase by propidium iodide flow cytometry. The data set is classed as cell-based, human. The following applies: BXPC3, 20 μM, 24 hours. The procedure:
(§1) MIA PaCa2, SW 1990, BXPC3 and HPDE 6C7 cells were treated with either 8-tocotrienol 20 μM or vehicle for 24 hours. Cells were harvested, washed twice in PBS, and fixed in ethanol overnight. Pellets were washed the following day in PBS, stained with propidium iodide, and analyzed by flow cytometry for cell cycle phase. […] Important regulators of the G1 cell cycle phase include members of the cyclin kinase inhibitor family. One of these members, p27^kip1, appears to be important in the progression of pancreatic cancer.
In general terms: In flow cytometry, cells or beads pass a laser one at a time.

The subject of data set [2] is HPDE 6C7 cells. Described as above. The class given is cell-based, human. The conditions noted are these: HPDE 6C7, 20 μM, 24 hours. The procedure: as §1
Data set [3] relates to MIA PaCa2 cells. Described as above. The data set is classed as cell-based, human. The conditions noted are these: MIA PaCa2, 20 μM, 24 hours. The procedure:
as §1

The test system of the next data set is SW 1990 cells. The data set is described as above. The class given is cell-based, human. The following applies: SW 1990, 20 μM, 24 hours. As for the experimental part: as §1
The subject of data set [4] is p27^kip1 luciferase reporter. Kind of data set: p27^kip1 luciferase reporter assay. The conditions noted are these: Mia PaCa2, 20 μM, 24 hours. The data set is classed as cell-based, human. As for the experimental part:
The mechanism by which δ-tocotrienol upregulates p27^kip1 protein expression was investigated using a luciferase reporter assay. Mia PaCa2 cells transfected with a p27^kip1 luciferase reporter (Wang, et al. Activation of p27Kip1 Expression by E2F1. A negative feedback mechanism. J Biol. Chem. 2005 Apr. 1; 280(13):12339-43. Epub 2005 Feb. 14) were treated with either δ-tocotrienol (20 μM) or vehicle for 24 hours and luciferase activity was then measured using a luminometer.

For another data set, the system named is p-cRaf, p-MEK, and p-ERK. In words: Immunoblot of downstream phosphorylated targets of oncogenic Ras. The data set is classed as cell-based, human. The conditions noted are these: pancreatic cancer cell lines, 20 μM. As for the experimental part: The Ras effector pathways Raf-MEK-ERK and PI3 kinase-AKT are important for cell proliferation and survival, respectively. Pancreatic cancer cell lines (MIA PaCa2, SW1990, BXPC3) and HPDE 6C7 cells were treated with 8-tocotrienol (20 μM) and cell lysates were collected and prepared at progressive time intervals as described above. Proteins from lysates were run by SDS PAGE and immunoblotted with the following antibodies: Ras, p-cRaf (ser 338), p-MEK1/2, MEK1/2, pERK 44/42, ERK 44/42 (Cell Signaling) and c-Raf (BD Transduction Laboratories). […] The MIA PaCa2 and SW1990 cells were then tested for AKT inhibition. The cells were treated with δ-tocotrienol (20 μM) for 24 and 48 hours and cell lysates were run by SDS-PAGE and immunoblotted for p-AKT and AKT (Cell Signaling). […] Taken together, the inhibition of downstream effectors of oncogenic Ras signaling by δ-tocotrienol without an effect on Ras protein levels may indicate a negative regulatory role of 8-tocotrienol on the function of oncogenic Ras. The pancreatic ductal epithelial cell proliferative inhibition by δ-tocotrienol was tested to see if it occurs through blocking aberrant signal transduction cascades. […]
For orientation: A western blot detects proteins with antibodies after separation by electrophoresis.

The test system of data set [5] is Caspase 8, Caspase 3, PARP, cytochrome C, caspase 9. Kind of data set: Immunoblot for biomarkers of apoptosis (caspase cascade). The data set is classed as cell-based, human. The following applies: MIA PaCa2, 20 μM. The procedure: An aliquot of the cells were collected and cells lysed. The lysate was then run on a Western blot and cleavage of caspase 8, caspase 3, and PARP detected.
(§2) In addition to its chemopreventive effects, δ-Tocotrienol induces apoptosis in pancreatic cancer. MIA PaCa2 cells were treated with either δ-tocotrienol or vehicle for 24 hours. Cells were collected and stained with annexin V-FITC and analyzed by flow cytometry for apoptosis. […] MIA PaCa2 cells and HPDE 6C7 cells were treated with vehicle or δ-tocotrienol (20 μM) for 24 hours, then harvested and stained for TUNEL. […] Cell lysates were prepared from MIA PaCa2 cells treated with 8-tocotrienol (20 μM) at progressive time intervals and proteins from lysates were run by SDS PAGE and immunoblotted for biomarkers of apoptosis.

Data set [6] relates to MIA PaCa2 cells. Kind of data set: TUNEL staining. The class given is cell-based, human. The following applies: MIA PaCa2, 20 μM, 24 hours, vs vehicle or treated HPDE 6C7. The procedure:
as §2

Data set [7] relates to MIA PaCa2 cells. In words: MTT cell viability, δ-tocotrienol, fluorouracil or combination. The data set is classed as cell-based, human. As for the experimental part:
FIG. 39 is a graph MIA PaCa2 pancreatic cancer cells (3×10^3) treated with indicated concentrations of delta-tocotrienol, fluorouracil (5FU), or a combination of the indicated delta-tocotrienol and 5FU.
The MiaPaCa 2 cells were plated as above into 96 well plates and treated the following day with increasing concentrations of δ-tocotrienol, fluorouracil (5FU), or a combination of δ-tocotrienol and fluorouracil. The cells were collected and analyzed for cell viability using an MTT assay. […] MIA PaCa2 cells (3×10^3) were cultured as described in the Examples above, in 96-well plates and treated the following day with vehicle, δ-tocotrienol, fluorouracil, or a combination of δ-tocotrienol and fluorouracil.

For data set [8], the system named is oncogenic Ras signaling targets in tumors. Kind of data set: Immunohistochemical staining of extracted xenograft tumors. The class given is in vivo, mice. As for the experimental part:
FIGS. 50A and B are immunohistochemical stains of the effects of δ-tocotrienol on oncogenic Ras signaling targets. […] A. A comparison of H&E, Ki67, and p-MAPK staining of control versus delta-tocotrienol treated MIA PaCa2 cells. B. A comparison of p-AKT, p27^kip1, and TUNEL staining of control versus delta-tocotrienol treated cells.
Tumors were extracted on the last day of treatment and imbedded in paraffin. Immunohistochemical staining was performed to determine the effects of δ-tocotrienol on oncogenic Ras signaling targets. […] Furthermore, the biomarker proteins p-MAPK and p-AKT were decreased and p27^kip1 expression was increased in δ-tocotrienol treated tumors. […] This is associated with inhibition of AKT signaling targets. Moreover, overexpression of myr AKT in Pancreatic Cancer cells rescues the effect δ-Tocotrienol induces apoptosis in vitro and in vivo.

Data set [9] in a line: Plasma and mouse tissue levels by HPLC-UV. The data set is classed as in vivo. The text has this:
FIG. 52 is a graph showing tissue levels of delta-tocotrienol. *p=0.0044; # p=0.0034; † p=0.0181.

Where [10] appears, read: tumors from treated mice vs control group.

pIC50: −log10 of the molar value.

For `CC(C)=CCC/C(C)=C/CC/C(C)=C/CC[C@]1(C)CCc2cc(O)cc(C)c2O1` [T3 delta, delta tocotrienol], the antiproliferative effect entry in the data set with HPDE 6C7 cells [1] was “relatively resistant”. For the same molecule, the cell cycle phase entry is on record as “significant G1 cell cycle arrest” with BXPC3 cells, “no effect on cell cycle phase” in the data set with HPDE 6C7 cells [2], “significant G1 cell cycle arrest” in the data set on MIA PaCa2 cells [3] and “significant G1 cell cycle arrest” with SW 1990 cells. In [4], the “luciferase activity (p27^kip1 reporter)” value was “increase in luciferase activity”. In addition, in the data set on p-cRaf, p-MEK, and p-ERK, the “downstream phosphorylated targets of oncogenic Ras p-cRaf, p-MEK, p-ERK” value is reported as “selectively inhibited”. In data set [5], the “mitochondrial pro-apoptotic proteins (cytochrome C release, cleavage of caspase 9)” value is given as “no significant effect”. Further, the “caspase cascade: cleavage of caspase 8, caspase 3, PARP” value in data set [5] (time dependent) is given as “activation of the caspase cascade”. Also, the TUNEL staining result in the data set with MIA PaCa2 cells [6] is given as “significant staining for TUNEL”. The “concentration at which the effect became significant vs vehicle” value in the data set with MIA PaCa2 cells [7] amounted to 50 µM. Also, the pIC50 – broadly, the IC50 on a negative log10 scale, so that one unit is a factor of ten – in the data set on MIA PaCa2 cells [7] (at 24 hours) was 4.30. Besides, the “p27^kip1 expression” value in data set [8] (treated tumors) is listed as “increased”. Besides, in data set [8] (treated tumors), the p-AKT entry is given as “decreased”. In data set [8] (treated tumors), the p-MAPK entry is “decreased”. In addition, the “Ki67 staining (proliferation)” value in data set [8] (setting [10]) is given as “decrease in Ki67”. Further, in data set [8] (setting [10]), the “TUNEL staining (apoptosis)” value was “induction of apoptosis”. In [9] (mouse plasma), the plasma level result is on record as “detectable in plasma”. For the same molecule, the “localization in the pancreas compared to liver and pancreatic tumor levels (factor)” value in [9] (mouse tissue) amounted to 10.
